Reference: patent publication US11242351B2, “Tricyclic inhibitors of the BCL6 BTB domain protein-protein interaction and uses thereof” (priority 2017, dated 2022)
Where two headings read alike, the source gives them in different places.

What was measured:
Karpas422 cells = assay: Tumor cell growth inhibition assay; assay type: cell-based; settings: Homo sapiens, KARPAS-422, 144 h, read-out: GI Karpas EC50
Experimental: Tumor Cell Growth Inhibition Assay:
Karpas422 cells were seeded into a 96-well plate at 2,000 cells/well in 150 μl medium (Alpha-MEM containing 10% FBS, […] Normocin, and […] Gentamycin, Invitrogen). A HP D300 digital dispenser was used to dose cells with DMSO or test compounds across a 10-point range of concentrations (high dose of 5 μM), and cultures were grown in a humidified 5% CO2 incubator at 37° C. After six days, plates were removed from incubator and equilibrated to room temperature. An equal volume of ATPlite assay reagent was added to each well, and samples were processed according to the manufacturer's instructions (Perkin Elmer). The luminescent signal was measured using an Envision plate reader equipped with a US-Luminescence detector.

[1] = target: BCL6 BTB domain (biotin-thrombin-BCL6 amino acids 1-129) (Homo sapiens (Human), UniProt P41182); assay: Surface Plasmon Resonance (SPR) assay; assay type: binding; settings: Biacore T200, single cycle kinetic analysis
Experimental: Surface Plasmon Resonance (SPR) Assay
SPR studies were performed using a Biacore™ T200 instrument (GE Health Sciences Inc.). […] The Biacore flow rate was set at 100 μl/min. […] Curve fitting and KD calculations were performed with the Biacore T200 Evaluation software (GE Health Sciences Inc).

[2] = system: BCL6 reporter construct in SuDHL4-3×BCL6-TK-Luc cells; assay: Cell-based luciferase assay (BCL6 reporter); settings: 48 h, read-out: Luc IC50
Experimental: Cell-Based Luciferase Assay:
A BCL6 reporter construct containing three copies of the consensus BCL6 binding site, the TK promoter, and the firefly luciferase gene was stably expressed in SuDHL4 cells after lentivirus infection and selection with Blasticidin. SuDHL4-3×BCL6-TK-Luc cells were seeded into a Viewplate 384-well assay dish at 15,000 cells/well in […] (Alpha-MEM high glucose containing 10% FBS, 25 mM HEPES, […] GlutaMAX, 100 µg/mL Normocin, and […] Gentamycin, Invitrogen). A HP D300 digital dispenser was used to dose cells with DMSO or test compounds across a 10-point range of concentrations (high dose of 10 μM), and cultures were grown in a humidified 5% CO2 incubator at 37° C. After two days, plates were removed from the incubator and equilibrated to room temperature. An equal volume of neolite reporter gene assay reagent was added to each well, and samples were processed according to the manufacturer's instructions (Perkin Elmer). The luminescent signal was measured using an Envision plate reader equipped with a US-Luminescence detector.

[3] = Karpas422 cells, six days, ATPlite
[4] = SuDHL4-3×BCL6-TK-Luc cells, two days

| SMILES | EC50 (Karpas422 cells; [3]) [nM] | Kd [1] [nM] | IC50 [2, 4] [nM] | EC50 (Karpas422 cells) [nM] | IC50 [2] [nM] |
| --- | --- | --- | --- | --- | --- |
| C[C@H]1CN(C2COC2)CCN1c1cc(NC(=O)Cn2cc(-c3cc(C(N)=O)c(O)c(F)c3F)c3c(=O)n4c(nc32)CCCCC4)c(Cl)c(F)n1 [I-50, (S)-5-(1-(2-((3-chloro-2-fluoro-6-(2-methyl-4-(oxetan-3-yl)piperazin-1-yl)pyridin-4-yl)amino)-2-oxo-ethyl)-4-oxo-4,6,7,8,9,10-hexahydro-1H-pyrrolo [2′,3′:4,5]pyrimido [1,2-a]azepin-3-yl)-3,4-difluoro-2-hydroxybenzamide] | 475 | 43 | 395 | – | – |
| C[C@H]1CNCCN1c1cc(NC(=O)Cn2cc(-c3cc(F)c(O)c(C(N)=O)c3)c3c(=O)n4c(nc32)CCC4)c(Cl)c(F)n1 [I-93, (S)-5-(1-(2-((3-chloro-2-fluoro-6-(2-methyl-piperazin-1-yl)pyridin-4-yl)amino)-2-oxoethyl)-4-oxo-4,6,7,8-tetrahydro-1H-dipyrrolo[1,2-a:2′,3′-d]pyrimidin-3-yl)-3-fluoro-2-hydroxy-benzamide] | 83.9 | 1.79 | 140 | – | – |
| CN(C)c1cc(NC(=O)Cn2cc(-c3cc(C(N)=O)c(O)c(F)c3F)c3c(=O)n4c(nc32)CCC4)c(Cl)c(F)n1 [I-22, 5-(1-(2-((3-chloro-6-(dimethylamino)-2-fluoropyridin-4-yl)amino)-2-oxoethyl)-4-oxo-4,6,7,8-tetrahydro-1H-dipyrrolo [1,2-a:2′,3′-d]pyrimidin-3-yl)-3,4-difluoro-2-hydroxybenzamide] | 146 | 11.8 | 274 | – | – |
| CO[C@@H](C)CN1CCN(c2cc(NC(=O)Cn3cc(-c4cc(C(N)=O)c(O)c(F)c4F)c4c(=O)n5c(nc43)CCC5)c(Cl)c(F)n2)[C@@H](C)C1 [I-37, 5-(1-(2-((3-chloro-2-fluoro-6-((S)-4-((S)-2-methoxypropyl)-2-methylpiperazin-1-yl)pyridin-4-yl)amino)-2-oxoethyl)-4-oxo-4,6,7,8-tetrahydro-1H-dipyrrolo[1,2-a:2′,3′-d]pyrimidin-3-yl)-3,4-difluoro-2-hydroxy-benzamide] | 113 | 14.4 | 109 | – | – |
| C[C@H]1CN(C)C[C@H](C)N1c1cc(NC(=O)Cn2cc(-c3cc(C(N)=O)c(O)c(F)c3F)c3c(=O)n4c(nc32)CCC4)c(Cl)cn1 [I-54, 5-(1-(2-((5-chloro-2-((2S,6S)-2,4,6-trimethylpiperazin-1-yl)pyridin-4-yl)amino)-2-oxoethyl)-4-oxo-4,6,7,8-tetrahydro-1H-dipyrrolo[1,2-a:2′,3′-d]pyrimidin-3-yl)-3,4-difluoro-2-hydroxy-benzamide] | – | 97.6 | – | 2000 | 5980 |
| C[C@H]1COCCN1c1cc(NC(=O)Cn2cc(-c3cc(C(N)=O)c(O)c(F)c3F)c3c(=O)n4c(nc32)CCCC4)c(Cl)c(F)n1 [I-42, (S)-5-(1-(2-((3-chloro-2-fluoro-6-(3-methyl-morpholino)pyridin-4-yl)amino)-2-oxoethyl)-4-oxo-1,4,6,7,8,9-hexahydropyrido [1,2-a]pyrrolo[2,3-d]pyrimidin-3-yl)-3,4-difluoro-2-hydroxy-benzamide] | 331 | 29 | 407 | – | – |
| CC1CN(C)CC(C)N1c1cc(NC(=O)Cn2cc(-c3cc(C(N)=O)c(O)c(F)c3F)c3c(=O)n4c(nc32)CCC4)c(Cl)cn1 (stereo not drawn) [I-21, 5-(1-(2-((5-chloro-2-(2,4,6-trimethyl-piperazin-1-yl)pyridin-4-yl)amino)-2-oxoethyl)-4-oxo-4,6,7,8-tetrahydro-1H-dipyrrolo[1,2-a:2′,3′-d]pyrimidin-3-yl)-3,4-difluoro-2-hydroxy-benzamide] | – | 25.6 | – | 329 | 355 |
| C[C@H]1CN(C)CCN1c1cc(NC(=O)Cn2cc(-c3cc(C(N)=O)c(O)c(F)c3F)c3c(=O)n4c(nc32)CC(C)(C)C4)c(Cl)c(F)n1 [I-57, (S)-5-(1-(2-((3-chloro-6-(2,4-dimethyl-piperazin-1-yl)-2-fluoropyridin-4-yl)amino)-2-oxoethyl)-7,7-dimethyl-4-oxo-4,6,7,8-tetrahydro-1H-dipyrrolo[1,2-a:2′,3′-d]pyrimidin-3-yl)-3,4-difluoro-2-hydroxy-benzamide] | – | 11.2 | – | 62.1 | 114 |
| C[C@H]1COCCN1c1cc(NC(=O)Cn2cc(-c3cc(C(N)=O)c(O)c(F)c3F)c3c(=O)n4c(nc32)CCC4)c(Cl)cn1 [I-3, (S)-5-(1-(2-((5-chloro-2-(3-methylmorpho-lino)pyridin-4-yl)amino)-2-oxoethyl)-4-oxo-4,6,7,8-tetrahydro-1H-dipyrrolo[1,2-a:2′,3′-d]pyrimidin-3-yl)-3,4-difluoro-2-hydroxy-benzamide] | 502 | 25.2 | 708 | – | – |
| C[C@H]1CN(C)CCN1c1cc(NC(=O)Cn2cc(-c3cc(Cl)c(O)c(C(N)=O)c3)c3c(=O)n4c(nc32)CC(C)(C)C4)c(Cl)c(F)n1 [I-60, (S)-3-chloro-5-(1-(2-((3-chloro-6-(2,4-dimethylpiperazin-1-yl)-2-fluoropyridin-4-yl)amino)-2-oxoethyl)-7,7-dimethyl-4-oxo-4,6,7,8-tetrahydro-1H-dipyrrolo[1,2-a:2′,3′-d]pyrimidin-3-yl)-2-hydroxybenzamide] | – | 13.4 | – | 97.2 | 186 |
| C[C@H]1CN(C2COC2)CCN1c1cc(NC(=O)Cn2cc(-c3cc(C(N)=O)c(O)c(F)c3F)c3c(=O)n4c(nc32)CCC4)c(Cl)c(F)n1 [I-20, (S)-5-(1-(2-((3-chloro-2-fluoro-6-(2-methyl-4-(oxetan-3-yl)piperazin-1-yl)pyridin-4-yl)amino)-2-oxoethyl)-4-oxo-4,6,7,8-tetrahydro-1H-dipyrrolo[1,2-a:2′,3′-d]pyrimidin-3-yl)-3,4-difluoro-2-hydroxy-benzamide] | 57.6 | 3.96 | 61.2 | – | – |
| CC1Cc2nc3c(c(-c4cc(C(N)=O)c(O)c5c4OCO5)cn3CC(=O)Nc3cc(N4CCN(C)C[C@@H]4C)nc(F)c3Cl)c(=O)n2C1 (stereo partly drawn) [I-87, 7-(1-(2-((3-chloro-6-((S)-2,4-dimethyl-piperazin-1-yl)-2-fluoropyridin-4-yl)amino)-2-oxoethyl)-7-methyl-4-oxo-4,6,7,8-tetrahydro-1H-dipyrrolo[1,2-a:2′,3′-d]pyrimidin-3-yl)-4-hydroxybenzo[d][1,3] dioxole-5-carboxamide] | 9.04 | 0.77 | 10.6 | – | – |
| C[C@H]1CN(CC2CC2)CCN1c1cc(NC(=O)Cn2cc(-c3cc(C(N)=O)c(O)c(Cl)c3F)c3c(=O)n4c(nc32)CCC4)c(Cl)c(F)n1 [I-29, (S)-3-chloro-5-(1-(2-((3-chloro-6-(4-(cyclopropylmethyl)-2-methylpiperazin-1-yl)-2-fluoropyridin-4-yl)amino)-2-oxoethyl)-4-oxo-4,6,7,8-tetra-hydro-1H-dipyrrolo [1,2-a:2′,3′-d]pyrimi-din-3-yl)-4-fluoro-2-hydroxybenzamide] | – | 240 | – | 2590 | 2150 |
| COc1c(-c2cn(CC(=O)Nc3cc(N4CCOC[C@@H]4C)nc(F)c3Cl)c3nc4n(c(=O)c23)CCC4)cc(C(N)=O)c(O)c1OC [I-70, (S)-5-(1-(2-((3-chloro-2-fluoro-6-(3-methyl-morpholino)pyridin-4-yl)amino)-2-oxoethyl)-4-oxo-4,6,7,8-tetra-hydro-1H-dipyrrolo [1,2-a:2′,3′-d]pyrimi-din-3-yl)-2-hydroxy-3,4-dimethoxy-benzamide] | – | 255 | – | 4070 | 3820 |
| C[C@H]1CN(C2COC2)CCN1c1cc(NC(=O)Cn2cc(-c3cc(C(N)=O)c(O)c(F)c3F)c3c(=O)n4c(nc32)CCC4)c(Cl)cn1 [I-7, (S)-5-(1-(2-((5-chloro-2-(2-methyl-4-(oxetan-3-yl)piperazin-1-yl)pyridin-4-yl)amino)-2-oxoethyl)-4-oxo-4,6,7,8-tetrahydro-1H-dipyrrolo[1,2-a:2′,3′-d]pyrimidin-3-yl)-3,4-difluoro-2-hydroxy-benzamide] | 299 | 17.6 | 213 | – | – |
| C[C@H]1CN(C)CCN1c1cc(NC(=O)Cn2cc(-c3cc(C(N)=O)c(O)c(F)c3F)c3c(=O)n4c(nc32)CCC4)c(Cl)cn1 [I-4, (S)-5-(1-(2-((5-chloro-2-(2,4-dimethylpiperazin-1-yl)pyridin-4-yl)amino)-2-oxoethyl)-4-oxo-4,6,7,8-tetrahydro-1H-dipyrrolo [1,2-a:2′,3′-d]pyrimidin-3-yl)-3,4-difluoro-2-hydroxybenzamide] | 312 | 23.2 | 318 | – | – |
